Measured values: BindingDB's records for doi:10.1016/j.bmcl.2006.07.014 (Glaxosmithkline, 2006)

Target: T1, Dimer of Gag-Pol polyprotein [501-599,Q508K,L534I,L564I,C568A,C596A] (Human immunodeficiency virus 1, UniProt P03367, C568A/C596A/L534I/L564I/Q508K)
T1 construct: 501-599
Test: Protease Inhibition Assay
Conditions: pH 6.4; 25 °C
Method: The Ki values were determined using fluorogenic substrate, 2-(aminobenzoyl)-Thr-Ile-Nle-Phe(p-NO2)-Gln-ArgNH2. A standard curve relating changes in fluorescent intensity to changes in concentration of product was used to convert fluorescent changes into molar velocities. The amount of cleavage was determined by HPLC.

Structure (SMILES) | Ki [nM]
COc1ccc(S(=O)(=O)N(CC2CCCC2)C[C@@H](O)CN2C(=O)COC[C@@H]2Cc2ccccc2)cc1 | 1000
COc1ccc(S(=O)(=O)N(CC2CCCC2)C[C@@H](O)CN2C(=O)C3(CCOCC3)OC[C@@H]2Cc2ccccc2)cc1 [(2S)-3-[(3S)-3-benzyl-5-oxo-1,9-dioxa-4-azaspiro[5.5]undecan-4-yl]-N-(cyclopentylmethyl)-2-hydroxy-N-(4-methoxyphenyl)propane-1-sulfonamido] | 23
